System: BN-472 metastasizing breast tumor
Experiment: anti-tumor and anti-metastatic efficacy in the BN-472 metastasizing breast tumor model
Assay type: in vivo, brown Norwegian rats
Conditions: oral administration, daily doses of 0.2 or 2 mg/kg for three weeks, rats
Method: Experiments were carried out in order to investigate the anti-tumor efficacy and anti-metastatic efficacy of WX-771, WX-780 and WX-781.
The assay system used was the BN-472 metastasizing breast tumor in brown Norwegian rats. The kind of tumor tissue used is described, for example, in Kort et al., J. Natl. Cancer Inst. 72 (1984) 709-713. The rats were purchased from Harlan Nederland, NL 5960-AD Horst, the Netherlands, and were from six to eight weeks old with a weight of from 128 g to 170 g.
(4-Chlorobenzylsulfonyl-D-Ser-Gly-4-guanidinobenzyl-amide, hydrochloride salt) whose anti-tumor and anti-metastatic efficacy with subcutaneous injection had been disclosed was also studied for comparative purposes. For administration, 0.75 mg of WX-340 was dissolved in 20 ml of 5% (weight/volume) D-manitol in water and administered by subcutaneous injection in doses of 0.2 mg of drug/kg of rat.
A phosphatidylcholine vehicle was administered as control and was obtained by introducing 400 mg of soya phosphatidylcholine in 20 ml of phosphate-buffered saline and 400 μl of absolute ethanol. 0.8 ml of the suspension was administered orally to the rats as control.
WX-771 (7.5 mg) was introduced into 20 ml of a soya phosphatidylcholine solution as used also for the control. To administer 2 mg/kg, 0.8 ml of this suspension was administered orally. For a second group, the stock solution was diluted 1:10 to obtain a dose of 0.2 mg/kg when administering likewise 0.8 ml per rat.
(§1) WX-780 (7.5 mg) was introduced into 20 ml of a soya phosphatidylcholine suspension according to the above-described control suspension. To administer a dose of 2 mg/kg, the rats were given 0.8 ml of said suspension. To administer a dose of 0.2 mg/kg, the stock solution was diluted 1:10, with 0.8 ml per rat still being administered.
as §1, with “WX-781” for “WX-780”, “orally.” for “of said suspension.”, “ml/rat” for “ml per rat”, “administered orally.” for “administered.”

Row | Structure (SMILES) | anti-metastatic action | anti-tumor action
1 | CC(C)(C)C(=O)OC[C@@H](NS(=O)(=O)Cc1ccc(Cl)cc1)C(=O)NCC(=O)NCc1ccc(Nc2noc(C(C)(C)C)n2)cc1 [WX-781] | significant | significant
2 | C[C@@H](C(=O)NCc1ccc(Nc2noc(C(C)(C)C)n2)cc1)N(C)C(=O)[C@@H](COC(=O)C(C)(C)C)NS(=O)(=O)Cc1ccc(Cl)cc1 [WX-780] | significant | significant
3 | CC(C)(C)C(=O)OC[C@@H](NS(=O)(=O)Cc1ccc(Cl)cc1)C(=O)NCC(=O)NCc1ccc(NC(=N)NOC(=O)C(C)(C)C)cc1 [WX-771] | significant | significant

— US20090286837A1, “Oxadiazole compounds as urokinase inhibitors” (priority 2005, published 2009)
